Measured values published in patent US20110217280A1, “METHODS FOR TREATING NEUROPSYCHIATRIC CONDITIONS” (priority 2007, published 2011).

Experiments:
PAK1 = PAK1 (Homo sapiens, UniProt Q13153); conditions: independent of GTPase activators such as Cdc42 or Rac; cited from earlier work
[1] = system: double transgenic GFP-M/DN-DISC1 mice; assay: In vivo monitoring of dendritic spine plasticity by two photon laser scanning microscopy; conditions: 1 mg/kg i.p. once per day, imaging P40 to P70
Excerpt: In the following experiment, dendritic spine plasticity is directly monitored in vivo by two photon laser scanning microscopy (TPLSM) in double transgenic GFP-M/DN-DISC1 mice treated with a PAK activator or a placebo. Mice (C57BL/6) expressing GFP in a subset of cortical layer 5 neurons (transgenic line GFP-M described in Feng et al., 2000, Neuron 28:41-51) are crossed with DN-DISC1 C57BL/6 DN-DISC1 mice (Hikida et al (2007), Proc Natl Acad Sci USA, 104(36):14501-14506) to obtain heterozygous transgenic mice, which are then crossed to obtain homozygous double transgenic GFPM/DN-DISC1 mice used in this study.
GFP-M/DN-DISC1 animals aged 28-61 days are anesthetized using avertin ([…]; Sigma, St. Louis, Mo.). The skull is exposed, scrubbed, and cleaned with ethanol. […]
For in vivo two photon imaging, a two-photon laser scanning microscope is used as described in Majewska et al, (2000), Pflügers Arch, 441:398-408. […] Fluorescence is detected using photomultiplier tubes (HC125-02; Hamamatsu, Shizouka, Japan) in whole-field detection mode. The craniotomy over the visual cortex is initially identified under whole-field fluorescence illumination, and areas with superficial dendrites are identified using a 20×, 0.95 numerical aperture lens (IR2; Olympus Optical). […]

PAK1, sequence (Q13153 whole entry): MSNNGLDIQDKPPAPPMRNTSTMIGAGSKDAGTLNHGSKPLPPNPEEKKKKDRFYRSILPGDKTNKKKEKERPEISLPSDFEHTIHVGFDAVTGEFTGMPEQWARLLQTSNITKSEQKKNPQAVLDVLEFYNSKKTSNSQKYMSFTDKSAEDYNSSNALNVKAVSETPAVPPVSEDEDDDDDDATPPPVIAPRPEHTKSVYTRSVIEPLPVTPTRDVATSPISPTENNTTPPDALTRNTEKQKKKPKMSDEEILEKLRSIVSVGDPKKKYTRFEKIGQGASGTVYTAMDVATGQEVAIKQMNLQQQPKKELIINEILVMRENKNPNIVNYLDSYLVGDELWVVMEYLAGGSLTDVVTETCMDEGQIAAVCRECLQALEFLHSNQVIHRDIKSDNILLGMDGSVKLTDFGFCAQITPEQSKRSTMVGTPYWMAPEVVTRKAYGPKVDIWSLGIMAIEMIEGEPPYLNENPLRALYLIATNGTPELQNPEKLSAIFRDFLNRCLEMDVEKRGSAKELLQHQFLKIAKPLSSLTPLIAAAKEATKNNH

For `CCCCCCCCCCCCCC=CC(O)C(N)CO` (stereo not drawn) [sphingosine, 2-amino-4-octadecene-1,3-diol], the “activation of PAK1” value (PAK1) is given as “activate PAK1 independently of GTPase activators”, the “spine density relative to untreated control animals” value [1] is given as “increased spine density” and the “spine turnover relative to untreated control animals” value [1] is given as “reduced spine turnover”.
